According to patent US20240092784A1, “CONDENSED HETEROCYCLIC COMPOUND” (NISSAN CHEMICAL CORPORATION, priority 2020, published 2024):

Target: human SPR (Homo sapiens (Human), UniProt P35270)
Experiment: Evaluation Example 2: Measurement of human SPR inhibitory activity (seven concentrations, sepiapterin absorbance at 420 nm)
Type: biochemical
Settings: sepiapterin absorbance, Table 41, read-out: concentration at 50% inhibition of human SPR (IC50)
How it was run: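 His-tagged full-length human SPR (1-261) was expressed in E. coli and the tag removed. Enzyme at 150 ng/mL in 100 mM Tris-HCl pH 7.5/0.01% BSA was mixed with compound (0.14–100 nM, seven points), 120 μM sepiapterin and 160 μM NADPH, both as added-solution concentrations. After 240 min at room temperature, remaining sepiapterin was read at 420 nm to give percent inhibition.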

Chain of human SPR (P35270 whole entry): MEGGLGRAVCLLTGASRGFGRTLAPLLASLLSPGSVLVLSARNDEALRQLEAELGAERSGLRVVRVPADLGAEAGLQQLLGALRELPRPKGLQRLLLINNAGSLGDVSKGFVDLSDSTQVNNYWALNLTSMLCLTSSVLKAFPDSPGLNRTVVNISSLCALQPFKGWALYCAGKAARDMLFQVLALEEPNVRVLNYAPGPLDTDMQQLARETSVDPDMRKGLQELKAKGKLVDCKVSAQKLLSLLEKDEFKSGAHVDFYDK

Structure (SMILES) | IC50 [nM]
COC[C@H]1COCCN1C(=O)/C=C/c1c(C)nn2c(O)c(C(=O)NC3CC3)c(=O)n(CC(C)C)c12 [Synthesis Example 683, (S,E)-N-Cyclopropyl-7-hydroxy-4-isobutyl-3-(3-(3-(methoxymethyl)morpholino)-3-oxoprop-1-en-1-yl)-2-methyl-5-oxo-4,5-dihydropyrazolo[1,5-a]pyrimidine-6-carboxamide] | 0.82
Cc1nn2c(O)c(C(=O)NC3CC3)c(=O)n(CC(C)C)c2c1/C=C/C(=O)N1CCC(C#N)CC1 [Synthesis Example 684, (E)-3-(3-(4-Cyanopiperidin-1-yl)-3-oxoprop-1-en-1-yl)-N-cyclopropyl-7-hydroxy-4-isobutyl-2-methyl-5-oxo-4,5-dihydropyrazolo[1,5-a]pyrimidine-6-carboxamide] | 0.89
Cc1nn2c(O)c(C(=O)NC3CC3)c(=O)n(CC(C)C)c2c1/C=C/C(=O)N1CCN(CC(F)(F)F)CC1 [Synthesis Example 685, (E)-N-Cyclopropyl-7-hydroxy-4-isobutyl-2-methyl-5-oxo-3-(3-oxo-3-(4-(2,2,2-trifluoroethyl)piperazin-1-yl)prop-1-en-1-yl)-4,5-dihydropyrazolo[1,5-a]pyrimidine-6-carboxamide] | 1.23
Cc1nn2c(O)c(C(=O)NC3CC3)c(=O)n(CC(C)C)c2c1/C=C/C(=O)N(C)CC(C)(C)O [Synthesis Example 686, (E)-N-Cyclopropyl-7-hydroxy-3-(3-((2-hydroxy-2-methylpropyl)(methyl)amino)-3-oxoprop-1-en-1-yl)-4-isobutyl-2-methyl-5-oxo-4,5-dihydropyrazolo[1,5-a]pyrimidine-6-carboxamide] | 1
Cc1nn2c(O)c(C(=O)NC3CC3)c(=O)n(CC(C)C)c2c1/C=C/C(=O)N(C)CCC#N [Synthesis Example 687, (E)-3-(3-((2-Cyanoethyl)(methyl)amino)-3-oxoprop-1-en-1-yl)-N-cyclopropyl-7-hydroxy-4-isobutyl-2-methyl-5-oxo-4,5-dihydropyrazolo[1,5-a]pyrimidine-6-carboxamide] | 0.77
Cc1nn2c(O)c(C(=O)NC3CC3)c(=O)n(CC(C)C)c2c1/C=C/C(=O)N1CC[C@H](C#N)C1 [Synthesis Example 688, (S,E)-3-(3-(3-Cyanopyrrolidin-1-yl)-3-oxoprop-1-en-1-yl)-N-cyclopropyl-7-hydroxy-4-isobutyl-2-methyl-5-oxo-4,5-dihydropyrazolo[1,5-a]pyrimidine-6-carboxamide] | 0.91
Cc1nn2c(O)c(C(=O)NC3CC3)c(=O)n(CC(C)C)c2c1/C=C/C(=O)N1CC[C@@H](C#N)C1 [Synthesis Example 689, (R,E)-3-(3-(3-Cyanopyrrolidin-1-yl)-3-oxoprop-1-en-1-yl)-N-cyclopropyl-7-hydroxy-4-isobutyl-2-methyl-5-oxo-4,5-dihydropyrazolo[1,5-a]pyrimidine-6-carboxamide] | 0.95
Cc1nn2c(O)c(C(=O)NC3CC3)c(=O)n(CC(C)(C)C)c2c1/C=C/C(=O)N(C)CC#N [Synthesis Example 690, (E)-3-(3-((Cyanomethyl)(methyl)amino)-3-oxoprop-1-en-1-yl)-N-cyclopropyl-7-hydroxy-2-methyl-4-neopentyl-5-oxo-4,5-dihydropyrazolo[1,5-a]pyrimidine-6-carboxamide] | 1.46
CC[C@H]1COCCN1C(=O)/C=C/c1c(C)nn2c(O)c(C(=O)NC3CC3)c(=O)n(CC(C)(C)C)c12 [Synthesis Example 691, (S,E)-N-Cyclopropyl-3-(3-(3-ethylmorpholino)-3-oxoprop-1-en-1-yl)-7-hydroxy-2-methyl-4-neopentyl-5-oxo-4,5-dihydropyrazolo[1,5-a]pyrimidine-6-carboxamide] | 0.82
Cc1nn2c(O)c(C(=O)NC3CC3)c(=O)n(CC(C)(C)C)c2c1/C=C/C(=O)N1CCN(C2CC(F)(F)C2)CC1 [Synthesis Example 692, (E)-N-Cyclopropyl-3-(3-(4-(3,3-difluorocyclobutyl)piperazin-1-yl)-3-oxoprop-1-en-1-yl)-7-hydroxy-2-methyl-4-neopentyl-5-oxo-4,5-dihydropyrazolo[1,5-a]pyrimidine-6-carboxamide] | 0.8
COC[C@@H]1COCCN1C(=O)/C=C/c1c(C)nn2c(O)c(C(=O)NC3CC3)c(=O)n(CC(C)(C)C)c12 [Synthesis Example 693, (R,E)-N-Cyclopropyl-7-hydroxy-3-(3-(3-(methoxymethyl)morpholino)-3-oxoprop-1-en-1-yl)-2-methyl-4-neopentyl-5-oxo-4,5-dihydropyrazolo[1,5-a]pyrimidine-6-carboxamide] | 0.71
COC[C@H]1COCCN1C(=O)/C=C/c1c(C)nn2c(O)c(C(=O)NC3CC3)c(=O)n(CC(C)(C)C)c12 [Synthesis Example 694, (S,E)-N-Cyclopropyl-7-hydroxy-3-(3-(3-(methoxymethyl)morpholino)-3-oxoprop-1-en-1-yl)-2-methyl-4-neopentyl-5-oxo-4,5-dihydropyrazolo[1,5-a]pyrimidine-6-carboxamide] | 0.85
Cc1nn2c(O)c(C(=O)NC3CC3)c(=O)n(CC(C)C)c2c1/C=C/C(=O)N1CCOc2ccncc21 [Synthesis Example 695, (E)-N-Cyclopropyl-3-(3-(2,3-dihydro-4H-pyrido[4,3-b][1,4]oxazin-4-yl)-3-oxoprop-1-en-1-yl)-7-hydroxy-4-isobutyl-2-methyl-5-oxo-4,5-dihydropyrazolo[1,5-a]pyrimidine-6-carboxamide] | 1.3
Cc1nn2c(O)c(C(=O)NC3CC3)c(=O)n(CC(C)C)c2c1/C=C/C(=O)N1CCOc2ccccc21 [Synthesis Example 696, (E)-N-Cyclopropyl-3-(3-(2,3-dihydro-4H-benz[b][1,4]oxazin-4-yl)-3-oxoprop-1-en-1-yl)-7-hydroxy-4-isobutyl-2-methyl-5-oxo-4,5-dihydropyrazolo[1,5-a]pyrimidine-6-carboxamide] | 1.71
Cc1nn2c(O)c(C(=O)NC3CC3)c(=O)n(CC(C)C)c2c1/C=C/C(=O)N1CCN(C2CC(F)(F)C2)C[C@H]1C [Synthesis Example 697, (R,E)-N-Cyclopropyl-3-(3-(4-(3,3-difluorocyclobutyl)-2-methylpiperazin-1-yl)-3-oxoprop-1-en-1-yl)-7-hydroxy-4-isobutyl-2-methyl-5-oxo-4,5-dihydropyrazolo[1,5-a]pyrimidine-6-carboxamide] | 1.22
Cc1nn2c(O)c(C(=O)NC3CC3)c(=O)n(CC(C)C)c2c1/C=C/C(=O)N1CCN(CC2CC(F)(F)C2)CC1 [Synthesis Example 698, (E)-N-Cyclopropyl-3-(3-(4-((3,3-difluorocyclobutyl)methyl)piperazin-1-yl)-3-oxoprop-1-en-1-yl)-7-hydroxy-4-isobutyl-2-methyl-5-oxo-4,5-dihydropyrazolo[1,5-a]pyrimidine-6-carboxamide] | 1.52
Cc1nn2c(O)c(C(=O)NC3CC3)c(=O)n(CC(C)C)c2c1/C=C/C(=O)N1CCc2ccncc21 [Synthesis Example 699, (E)-N-Cyclopropyl-3-(3-(2,3-dihydro-1H-pyrrolo[2,3-c]pyridin-1-yl)-3-oxoprop-1-en-1-yl)-7-hydroxy-4-isobutyl-2-methyl-5-oxo-4,5-dihydropyrazolo[1,5-a]pyrimidine-6-carboxamide] | 1.47
